Laboratory results as given in US20130029923A1, “Materials and Methods for Prevention and Treatment of Viral Infections” (priority 2009, published 2013).

Key:
[1] = system: influenza virus H1N1 (A/HK/54/98), oseltamivir-sensitive strain; type: cell-based, human influenza virus
[2] = system: influenza M1 protein, H9N2/G1 (A/Quail/HK/G1/97); type: cell-based, human influenza virus
[3] = system: influenza virus H9N2/G1 (A/Quail/HK/G1/97); type: cell-based, human influenza virus
[4] = system: influenza virus H3N2 (A/H3N2/1174/99); type: cell-based, human influenza virus
[5] = system: influenza virus H9N2/G1 (A/Quail/HK/G1/97); type: cell-based, human influenza virus; remark: listed apart in the source
[6] = system: influenza virus H9N2 (A/Quail/HK/G1/97); type: cell-based, human influenza virus
[7] = system: human influenza viruses H1N1 (A/HK/54/98), H9N2 (A/Quail/HK/G1/97), H3N2 (A/H3N2/1174/99); type: cell-based, human influenza virus
prostaglandin E2 (PGE2) = type: cell-based, human

With `C[C@@H]1O[C@@H](OC[C@H]2O[C@@H](OCCc3ccc(O)c(O)c3)[C@H](O)[C@@H](O)[C@@H]2OC(=O)/C=C/c2ccc(O)c(O)c2)[C@H](O)[C@H](O)[C@H]1O` [Compound A1, forsythoside A] the “suppression of virus replication (TCID50) compared with DMSO-treated cells” value (“suppression … compared with DMSO-treated cells” below) [1] was “about 15 fold”, the “M1 protein expression level compared to DMSO” value [2] was “lower” and the “relative intensity of M1 (normalized to actin)” value [2] was 0.39. For the same compound, the “relative intensity of M1, DMSO-treated over treated cells” value [2] was “more than four fold”, the “virion budding, ultrastructure” value [3] was “slowed or abnormal budding process” and the “suppression … compared with DMSO-treated cells” value [4] was roughly 12 fold. The “increase of cells expressing viral proteins from 6 h.p.i. to 10 h.p.i.” value [5] was “about 15%”, the “percentages of cells expressing viral proteins vs DMSO at 6 h.p.i.” value [5] was “no significant difference” and the “suppression … compared with DMSO-treated cells” value [6] was roughly 24 fold. The “anti-influenza virus effects in primary human blood macrophages” value [7] was “possesses anti-influenza virus effects”, the Cytotoxicity index (MDCK cells) was 1.02 and the “cytotoxicity on MDCK cells” value (MDCK cells; 100 ug/ml, 48 hours) was “does not exhibit significant cytotoxicity”.

`COC(=O)CC1(O)C=CC(=O)C=C1` [Compound D1, jacaranone] was tested, and the “PGE2 levels in H9N2/G1-infected macrophages” value (prostaglandin E2 (PGE2)) was “suppresses PGE2 levels in a dose-dependent manner” and the “PGE2 levels in non-infected macrophages” value (prostaglandin E2 (PGE2)) was “does not cause any changes in PGE2 levels”.

In the case of `CCOC(=O)C1=C[C@@H](OC(CC)CC)[C@H](NC(C)=O)[C@@H](N)C1` [Tamiflu, oseltamivir, reference compound], the “suppression of virus (TCID50) compared with diluent (PBS)-treated cells” value [1] is reported as “more than 30 folds”.
